According to US20260216131A1, “METHODS OF TREATING BREAST HYPERPLASIA USING TEZACAFTOR” (Jiangsu Bioscene Pharmaceutical Co., Ltd., priority 2023, published 2026):
“And” between values parts separate entries of the source, which are not always exact repeats. Equal entries are not always repeated. “Also recorded” adds a separate entry of the source.

Columns and labels:
Format in all cases: in vivo
[1] = tested on: rat model of breast hyperplasia; assay: Nipple diameter and height in rat model of breast hyperplasia; details: for Nipple Height / Nipple Diameter: female SD rats, gavage, tezacaftor 40 mg/kg/day, tamoxifen 4 mg/kg/day; for Nipple Diameter: in mm (unit assumed); for Change in nipple diameter compared with the model group / Change in nipple height compared with the model group: after 30 days of administration, result in words
Description: (§1) Study Design: Thirty-two female SD rats, aged 7-8 weeks and weighing 200-250 g, were used. The rats were randomly divided into four groups: a normal control group, a model group, a tezacaftor treatment group (hereinafter referred to as the “treatment group”), and a tamoxifen treatment group (hereinafter referred to as the “positive control group”).
(§2) Before administration of the test drugs, breast hyperplasia was induced in the rats of the model group, the treatment group, and the positive control group. Specifically, estradiol benzoate injection was intramuscularly administered to the inner thigh of each rat at a dose of 0.5 mg/kg/day for 25 consecutive days. Starting on day 26, progesterone injection was intramuscularly administered to the inner thigh at a dose of 5 mg/kg/day for 5 consecutive days. The total modeling period was 30 days.
(§3) Normal control group: Normal saline in an equal volume was intramuscularly administered to the inner side of the hind limb of each rat once daily for 30 consecutive days, with the left and right hind limbs injected alternately. Beginning on day 31, normal saline was administered by gavage for 30 days.
(§4) Model group: Beginning on day 31, the vehicle was administered by gavage for 30 consecutive days. Samples were collected 0.5 hour after the last administration.
(§5) Treatment group: Beginning on day 31, tezacaftor was administered by gavage at a dose of 40 mg/kg/day for 30 consecutive days. Samples were collected 0.5 hour after the last administration.
(§6) Positive control group: Beginning on day 31, tamoxifen was administered by gavage at a dose of 4 mg/kg/day for 30 consecutive days. Samples were collected 0.5 hour after the last administration.
Evaluation indices: (1) nipple diameter and height; (2) ovarian index and uterine index; (3) changes in serum E2 and PROG levels; and (4) the number of mammary lobular acini, the acinar lumen diameter, and the duct diameter in rats. […]

[2] = tested on: rat model of breast hyperplasia; assay: Ovarian index and uterine index in rat model of breast hyperplasia; details: after 30 days of administration; for Ovarian index (ovary weight/body weight) / Uterine index (uterine weight/body weight): gavage, tezacaftor 40 mg/kg/day, tamoxifen 4 mg/kg/day; for Change in ovarian index compared with the model group / Change in uterine index compared with the model group: result in words
Description: as §1, §2, §3, §4, §5, §6
(§7) Evaluation indices: (1) nipple diameter and height; (2) ovarian index and uterine index; (3) changes in serum E2 and PROG levels; and (4) the number of mammary lobular acini, the acinar lumen diameter, and the duct diameter in rats.
In the study of Embodiment 1, after 30 days of administration, the uterus weight, ovary weight, and body weight of the rats were measured. The uterine index was calculated as uterine weight/body weight, and the ovarian index was calculated as ovary weight/body weight. A comparison of the ovarian index and uterine index among the different groups is shown in FIG. 2, and the corresponding data are presented in Table 3.

[3] = tested on: rat model of breast hyperplasia; assay: Serum E2 and PROG levels in rat model of breast hyperplasia; details: after 30 days of administration; assay kit; result in words
Description: as §1, §2, §3, §4, §5, §6, §7
In the study of Embodiment 1, after 30 days of administration, serum E2 and PROG levels in rats of each group were measured using assay kits.

[4] = tested on: rat model of breast hyperplasia; assay: Histopathological evaluation (H&E) of mammary glands in rat model of breast hyperplasia; parameters: key to Histopathological Examination Score of mammary gland: Absence of a lesion was scored as 0; 1: very slight; 2: mild; 3: moderate; 4: severe; details: after 30 days of administration; for Breast hyperplasia compared with the model group: H&E pathology, result in words; for Histopathological Examination Score of mammary gland: individual animals No. 1-8, H&E staining
Description: as §1, §2, §3, §4, §5, §6, §7
In the study of Embodiment 1, after 30 days of administration, mammary gland tissues from rats in each group were collected, dehydrated, embedded, and sectioned. The sections were subjected to H&E staining and pathological analysis.

[5] = Day 0 of treatment (baseline after modeling)

SMILES	Nipple Height [1, 5] [mm]	Nipple Diameter [1, 5]	Nipple Height ([1]; Day 15 of treatment) [mm]	Nipple Diameter ([1]; Day 15 of treatment)	Nipple Height ([1]; Day 30 of treatment) [mm]	Nipple Diameter ([1]; Day 30 of treatment)	Change in nipple diameter compared with the model group [1]	Change in nipple height compared with the model group [1]	Ovarian index (ovary weight/body weight) [2] [%]	Uterine index (uterine weight/body weight) [2] [%]	Change in ovarian index compared with the model group [2]	Change in uterine index compared with the model group [2]	Serum E2 level compared with the model group [3]	Serum PROG level compared with the model group [3]	Breast hyperplasia compared with the model group [4]	Histopathological Examination Score of mammary gland [4]
CC/C(=C(\c1ccccc1)c1ccc(OCCN(C)C)cc1)c1ccccc1 [tamoxifen]	1.94 ± 0.16	1.63 ± 0.12	1.70 ± 0.17	1.28 ± 0.14	1.56 ± 0.12	1.11 ± 0.10	decreases	decreases	0.145 ± 0.052	0.050 ± 0.015	decreases	decreases	significantly decreased	significantly increased	alleviated	0 and 1 (4×) and 2 (3×)
CC(C)(CO)c1cc2cc(NC(=O)C3(c4ccc5c(c4)OC(F)(F)O5)CC3)c(F)cc2n1C[C@@H](O)CO [tezacaftor]	2.03 ± 0.12	1.63 ± 0.14	1.73 ± 0.21	1.24 ± 0.13	1.61 ± 0.13	1.12 ± 0.08	significantly reduced; also recorded: decreases	significantly reduced; also recorded: decreases	0.186 ± 0.088	0.055 ± 0.012	decreases	significantly reduced; also recorded: decreases	significantly decreased; also recorded: significantly improved	significantly increased; also recorded: significantly improved	alleviated; also recorded: alleviating breast hyperplasia	1 (4×) and 2 (4×)
